{"source": "paper PMC3049593", "about": "(British Journal of Cancer, 2011)", "key": {"coagulation": {"tested_on": "coagulation", "parameters": "method as in Dredge et al, 2010", "conditions": "compared with PI-88 or earlier PG500 series compounds; ref Dredge et al, 2010; cited from earlier work"}, "Hep3b2.1-7 tumours": {"tested_on": "Hep3b2.1-7 tumours", "test": "orthotopic Hep3b2.1-7 human liver cancer model", "assay_type": "in vivo, mice", "procedure": "(§1) In the orthotopic Hep3b2.1-7 human liver cancer model, treatment of mice (n=10) began 14 days after inoculation of 2.5 × 10^6 cells. […] To initiate tumour xenografts, MDA-MB-231, PC3, Cal27 and HepG2 cells were injected s.c. into nude mice (n=8) at 4, 5, 2 and 2 × 10^7 cells ml^−1, respectively. […] In the B16F0 lung metastasis model, 2 × 10^5 cells were injected via the tail vein of C57Bl6 mice (n=8). […] Surface lung macrometastases were counted for each group (n=9) upon study termination. In the intrasplenic HT-29 xenograft model, 1 × 10^6 cells in 100 μl were injected into the spleen. […] Solid tumours were measured in two dimensions (length and width) and the tumour volume (cm^3) was calculated using the equation: V=length × width^2 × π/6. The anti-tumour activity was expressed as percent tumour growth inhibition (%TGI). Further details are available in Supplementary Methods. […]\nIn the Hep3b2.1-7 model, the cells resuspended in HBSS:MatrigelTM (1:1, v/v) to a final concentration of 5 x 10^8 cells/mL were inoculated following an incision into the skin directly over the liver to expose the main lobe of the liver. The needle was introduced into the main lobe of the liver, where 2.5 x 106 Hep3b2.1-7 cells (in 5 µL with 50% Matrigel) were discharged. The treatment of mice began 24 days after inoculation of the […]\neither a once or twice weekly dosing schedule (see figure legends for dose schedules in each study) for up to three weeks. […]\nefficacy/PK study) using either a once or twice weekly dosing schedule (see figure legends for dose schedules in each study) for up to three weeks. […]\nIn relevant models, solid tumours were measured in two dimensions (length and width) and the tumour volume (mm3) calculated using the equation V = length × width2 × π/6.The anti-tumour activity was assessed by the comparison of the mean tumour volume of the treated groups to the mean tumour volume of the control group and expressed as the percent Tumour Growth Inhibition (TGI) using the equation:\n%TGI = (1-((VendPG545 - VstartPG545) / (VendControl - VstartControl)))*100 VendPG545 = Ending Tumour Volume of PG545-treated animal\nVstartPG545 = Starting Tumour Volume of PG545-treated animal\nVendControl = Ending Tumour Volume of Control animal\nVstartControl = Starting Tumour Volume of Control animal […]\nAfter collection, 0.2 mL of […]\nwhole blood was added to a glass scintillation vial to which 1 mL Solvable was added.\nSamples were incubated for one hour at 55-60°C. 0.1 mL of 0.1 M EDTA-di-sodium salt solution and 0.3 mL to 0.5 mL of 30% hydrogen peroxide in 0.1 mL aliquots were added to the sample. Samples were gently agitated between additions to allow reaction foaming to subside. Samples were incubated for 30 minutes at room temperature. […]"}, "Cal27 tumours": {"tested_on": "Cal27 tumours", "test": "Cal27 head and neck xenograft model", "assay_type": "in vivo, nude mice", "conditions": "20 mg kg^−1 once-weekly s.c.", "procedure": "as §1\nantibody. […]\nstaining. For quantification, three independent visual fields (20x magnification) were chosen and positive stained spots or vessels with identifiable lumen were counted.\nAngiogenesis inhibition and induction were calculated using the equations: […]\nregimen both before and after tumour cell inoculation (days -6, -3, 0, +3, +6) or only after tumour cell inoculation (days 0, +3, +6). B16 cell (2x105) were inoculated via tail vein injections and mice were culled and assessed for lung metastases on day 12. […]"}}}
{"smiles": "CC(C)CCC[C@@H](C)[C@H]1CCC2C3CCC4C[C@@H](O[C@@H]5O[C@H](COS(=O)(=O)[O-])[C@@H](O[C@H]6O[C@H](COS(=O)(=O)[O-])[C@@H](O[C@H]7O[C@H](COS(=O)(=O)[O-])[C@@H](O[C@H]8O[C@H](COS(=O)(=O)[O-])[C@@H](OS(=O)(=O)[O-])[C@H](OS(=O)(=O)[O-])[C@H]8OS(=O)(=O)[O-])[C@H](OS(=O)(=O)[O-])[C@H]7OS(=O)(=O)[O-])[C@H](OS(=O)(=O)[O-])[C@H]6OS(=O)(=O)[O-])[C@H](OS(=O)(=O)[O-])[C@H]5OS(=O)(=O)[O-])CC[C@]4(C)C3CC[C@@]21C.[Na+].[Na+].[Na+].[Na+].[Na+].[Na+].[Na+].[Na+].[Na+].[Na+].[Na+].[Na+].[Na+]", "note": "(some centres unmarked) [PG545]", "values": [{"measurement": "anti-coagulant properties", "setting": "coagulation", "result": "mild anti-coagulant properties"}, {"measurement": "TGI", "setting": "Hep3b2.1-7 tumours; 20 mg kg^−1 loading dose then 10 mg kg^−1 twice-weekly", "result": 55, "unit": "%"}, {"measurement": "TGI", "setting": "Hep3b2.1-7 tumours; 20 mg kg^−1 twice-weekly s.c.", "result": 52, "unit": "%"}, {"measurement": "TGI", "setting": "Hep3b2.1-7 tumours; once-weekly 20 mg kg^−1 followed by 10 mg kg^−1", "result": 65, "unit": "%"}, {"measurement": "TGI", "setting": "Cal27 tumours", "result": 57, "unit": "%"}]}
